Experimental data from patent US20060100431A1, “Biologically active compounds” (Amura Therapeutics Limited, priority 2002, published 2006).

How the values were obtained:
Wild-type cruzipain = Wild-type cruzipain (Trypanosoma cruzi, UniProt P25779); test: Trypanosoma cruzi cruzipain peptidase activity assay (Ki); type: biochemical; settings: read-out: Ki, inhibitors of cruzain and cruzipains
Summary of the method: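 Native cruzipain from T. cruzi Dm28 epimastigotes, 2.5 nM, in 100 mM sodium phosphate pH 6.75 with 1 mM EDTA and 10 mM L-cysteine, 25 °C, DMSO <1%. Rates taken from continuous fluorogenic substrate read; Ki by regression assuming reversible pure-competitive inhibition.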

CPB2.8ΔCTE = target: T1, CPB2.8ΔCTE (Leishmania mexicana, UniProt P36400); test: Leishmania mexicana cysteine protease B (CPB) peptidase activity assay (Ki); type: biochemical; settings: Ki, inhibitors of Leismania mexicana CPB protease
T1 construct: Wild-type recombinant CPB without the C-terminal extention (i.e. CPB2.8ΔCTE); Dr. Jeremy Mottram (Wellcome Centre for Molecular Parasitology, University of Glasgow)
Summary of the method: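 Apparent Ki was derived by regression of activity against inhibitor concentration, assuming pure-competitive reversible binding. Reaction: 0.25 nM CPB lacking the C-terminal extension, pH 5.5 acetate buffer (1 mM EDTA, 200 mM NaCl, 10 mM DTT), 25 °C, followed by continuous substrate fluorescence.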

Chain of Wild-type cruzipain (P25779 whole entry): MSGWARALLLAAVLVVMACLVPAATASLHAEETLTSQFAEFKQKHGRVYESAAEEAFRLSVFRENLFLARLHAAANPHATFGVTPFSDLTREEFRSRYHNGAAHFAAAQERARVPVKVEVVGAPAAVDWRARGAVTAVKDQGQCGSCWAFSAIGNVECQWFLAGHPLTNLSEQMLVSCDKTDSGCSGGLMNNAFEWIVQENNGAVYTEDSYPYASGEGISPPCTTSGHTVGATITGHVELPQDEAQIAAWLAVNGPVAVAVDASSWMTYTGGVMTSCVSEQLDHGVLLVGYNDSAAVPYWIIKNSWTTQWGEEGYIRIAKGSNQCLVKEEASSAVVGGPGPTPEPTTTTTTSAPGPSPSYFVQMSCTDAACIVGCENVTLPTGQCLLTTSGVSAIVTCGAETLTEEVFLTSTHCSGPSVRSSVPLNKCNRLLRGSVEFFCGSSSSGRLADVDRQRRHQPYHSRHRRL
T1 sequence (P36400 126-343, stated change not applied): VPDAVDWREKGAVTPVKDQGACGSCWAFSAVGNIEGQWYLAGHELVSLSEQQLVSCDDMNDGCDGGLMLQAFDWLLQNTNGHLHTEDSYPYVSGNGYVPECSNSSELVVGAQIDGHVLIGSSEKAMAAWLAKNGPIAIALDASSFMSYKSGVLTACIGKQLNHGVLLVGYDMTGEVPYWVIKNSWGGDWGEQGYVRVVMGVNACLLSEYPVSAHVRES

SMILES: CC(C)C[C@H](NC(=O)c1ccc(N(C)C)cc1)C(=O)N1CC[C@@H]2[C@H]1C(=O)CN2C(=O)Nc1ccccc1 [Example 167, (3aS,6aR)-4-[(2S)-2-(4-Dimethylamino-benzoylamino)-4-methyl-pentanoyl]-3-oxo-hexahydro-pyrrolo[3,2-b]pyrrole-1-carboxylic acid phenylamide]
- Ki (Wild-type cruzipain): < 5 µM
- Ki (CPB2.8ΔCTE): < 5 µM

SMILES: CC(C)C[C@H](NC(=O)c1ccc(N(C)C)cc1)C(=O)N1CC[C@@H]2[C@H]1C(=O)CN2C(=O)c1ccc(C(F)(F)F)cc1 [Example 69, (3aR,6aS)-4-Dimethylamino-N-{(1S)-3-methyl-1-[6-oxo-4-(4 trifluoromethyl-benzoyl)-hexahydro-pyrrolo[3,2-b]pyrrole-1-carbonyl]-butyl}-benzamide]
- Ki (Wild-type cruzipain): < 5 µM
- Ki (CPB2.8ΔCTE): < 5 µM

SMILES: COC1CCCC(C(=O)N2CC(=O)[C@@H]3[C@H]2CCN3C(=O)[C@H](CC(C)C)NC(=O)c2ccc(N(C)C)cc2)C1 (stereo partly drawn) [Example 139, (3aR,6aS)-4-Dimethylamino-N-{(1S)-1-[4-(3-methoxy-cyclohexanecarbonyl)-6-oxo-hexahydro-pyrrolo[3,2-b]pyrrole-1-carbonyl]-3-methyl-butyl}-benzamide]
- Ki (Wild-type cruzipain): < 5 µM
- Ki (CPB2.8ΔCTE): < 5 µM

SMILES: CC(C)C[C@H](NC(=O)c1ccc(C(C)(C)C)cc1)C(=O)N1CC[C@@H]2[C@H]1C(=O)CN2C(=O)Nc1ccccc1 [Example 190, (3aS,6aR)-4-(2S-2-(4-tert-Butyl-benzoylamino)-4-methyl-pentanoyl]-3-oxo-hexahydro-pyrrolo[3,2-b]pyrrole-1-carboxylic acid phenylamide]
- Ki (Wild-type cruzipain): < 5 µM
- Ki (CPB2.8ΔCTE): < 5 µM

SMILES: CC(C)C[C@H](NC(=O)c1ccc(C(C)(C)C)cc1)C(=O)N1CC[C@@H]2[C@H]1C(=O)CN2C(=O)c1ccncc1 [Example 6, (3aR,6aS)-4-tert-Butyl-N-{(1S)-3-methyl-1-[6-oxo-4-(pyridine-4-carbonyl)-hexahydro-pyrrolo[3,2-b]pyrrole-1-carbonyl]-butyl}-benzamide]
- Ki (Wild-type cruzipain): < 5 µM
- Ki (CPB2.8ΔCTE): < 5 µM

SMILES: CC(C)C[C@H](NC(=O)c1ccc(N(C)C)cc1)C(=O)N1CC[C@@H]2[C@H]1C(=O)CN2C(=O)c1ccncc1 [Example 82, (3aR,6aS)-4-Dimethylamino-N-{(1S)-3-methyl-1-[6-oxo-4-(pyridinecarbonyl)-hexahydro-pyrrolo[3,2-b]pyrrole-1-carbonyl]-butyl}-benzamide]
- Ki (Wild-type cruzipain): < 5 µM
- Ki (CPB2.8ΔCTE): < 5 µM

SMILES: CC(C)C[C@H](NC(=O)c1ccc(N(C)C)cc1)C(=O)N1OC[C@@H]2[C@H]1C(=O)CN2C(=O)c1ccccc1 [Example 248, (3aS,6aS)-N-[(1S)-1-(4-Benzoyl-6-oxo-hexahydro-2-oxa-1,4-diaza-pentalene-1-carbonyl)-3-methyl-butyl]-4-dimethylamino-benzamide]
- Ki (Wild-type cruzipain): < 5 µM
- Ki (CPB2.8ΔCTE): < 5 µM

SMILES: CC(C)C[C@H](NC(=O)c1ccc(N(C)C)cc1)C(=O)N1CC[C@@H]2[C@H]1C(=O)CN2C(=O)c1ccccc1F [Example 62, (3aR,6aS)-4-Dimethylamino-N-{(1S)-1-[4-(2-fluoro-benzoyl)-6-oxo-hexahydro-pyrrolo[3,2-b]pyrrole-1-carbonyl]-3-methyl-butyl}-benzamide]
- Ki (Wild-type cruzipain): < 5 µM
- Ki (CPB2.8ΔCTE): < 5 µM

SMILES: CC(C)C[C@H](NC(=O)c1ccc(N(C)C)cc1)C(=O)N1CC[C@@H]2[C@H]1C(=O)CN2C(=O)[C@@H](N)CC(C)(C)C [Example 212, (3aR,6aS)-N-{(1S)-1-[4-((2S)-2-Amino-4,4-dimethyl-pentanoyl)-6-oxo-hexahydro-pyrrolo[3,2-b]pyrrole-1-carbonyl]-3-methyl-butyl}-4-dimethylamino-benzamide]
- Ki (Wild-type cruzipain): < 5 µM
- Ki (CPB2.8ΔCTE): < 5 µM

SMILES: CC(C)C[C@H](NC(=O)c1ccc(N(C)C)cc1)C(=O)N1CC[C@@H]2[C@H]1C(=O)CN2C(=O)c1cccc(OC(F)(F)F)c1 [Example 70, (3aR,6aS)-4-Dimethylamino-N-{(1S)-3-methyl-1-[6-oxo-4-(3-trifluoromethoxy-benzoyl)-hexahydro-pyrrolo[3,2-b]pyrrole-1-carbonyl]-butyl}-benzamide]
- Ki (Wild-type cruzipain): < 5 µM
- Ki (CPB2.8ΔCTE): < 5 µM

SMILES: CC(C)C[C@H](NC(=O)c1ccc(C(C)(C)C)cc1)C(=O)N1CC[C@@H]2[C@H]1C(=O)CN2C(=O)c1cccc(Br)c1 [Example 25, (3aR,6aS)-N-{(1S)-1-[4-(3-Bromo-benzoyl)-6-oxo-hexahydro-pyrrolo[3,2-b]pyrrole-1-carbonyl]-3-methyl-butyl}-4-tert-butyl-benzamide]
- Ki (Wild-type cruzipain): < 5 µM
- Ki (CPB2.8ΔCTE): < 5 µM

SMILES: CC(C)C[C@H](NC(=O)c1ccc(N(C)C)cc1)C(=O)N1CC[C@@H]2[C@H]1C(=O)CN2C(=O)c1cc2ccccc2o1 [Example 101, (3aR,6aS)-N-{(1S)-1-[4-(Benzofuran-2-carbonyl)-6-oxo-hexahydro-pyrrolo[3,2-b]pyrrole-1-carbonyl]-3-methyl-butyl}-4-dimethylamino-benzamide]
- Ki (Wild-type cruzipain): < 5 µM
- Ki (CPB2.8ΔCTE): < 5 µM

SMILES: CC(C)C[C@H](NC(=O)c1ccc(N(C)C)cc1)C(=O)N1CC[C@@H]2[C@H]1C(=O)CN2C(=O)c1ccc([N+](=O)[O-])cc1 [Example 47, (3aR,6aS)-4-Dimethylamino-N-{(1S)-3-methyl-1-[4-(4-nitro-benzoyl)-6-oxo-hexahydro-pyrrolo[3,2-b]pyrrole-1-carbonyl]-butyl}-benzamide]
- Ki (Wild-type cruzipain): < 5 µM
- Ki (CPB2.8ΔCTE): < 5 µM

SMILES: CC(C)C[C@H](NC(=O)c1ccc(C(C)(C)C)cc1)C(=O)N1CC[C@@H]2[C@H]1C(=O)CN2C(=O)C1COc2ccccc2O1 (stereo partly drawn) [Example 29, (3aR,6aS)-4-tert-Butyl-N-{(1S)-1-[4-(2,3-dihydrobenzo[1,4]dioxine-2-carbonyl)-6-oxo-hexahydro-pyrrolo[3,2-b]pyrrole-1-carbonyl]-3-methyl-butyl}-benzamide]
- Ki (Wild-type cruzipain): < 5 µM
- Ki (CPB2.8ΔCTE): < 5 µM

SMILES: CC(C)C[C@H](NC(=O)c1ccc(C(C)(C)C)cc1)C(=O)N1CC[C@@H]2[C@H]1C(=O)CN2C(=O)c1ccc2ncsc2c1 [Example 32, (3aR,6aS)-N-{(1S)-1-[4-(Benzothiazole-6-carbonyl)-6-oxo-hexahydro-pyrrolo[3,2-b]pyrrole-1-carbonyl]-3-methyl-butyl}-4-tert-butyl-benzamide]
- Ki (Wild-type cruzipain): < 5 µM
- Ki (CPB2.8ΔCTE): < 5 µM

SMILES: CC(C)C[C@H](NC(=O)c1ccc(N(C)C)cc1)C(=O)N1CC[C@@H]2[C@H]1C(=O)CN2C(=O)[C@H](Cc1ccccc1)NC(=O)OCc1ccccc1 [Example 160, (3aS,6aR)-((1S)-1-Benzyl-2-{-[(2S)-2-(4-dimethylamino-benzoylamino)-4-methyl-pentanoyl]-3-oxo-hexahydro-pyrrolo[3,2-b]pyrrole-1-yl}-2-oxo-ethyl)-carbamic acid benzyl ester]
- Ki (Wild-type cruzipain): < 5 µM
- Ki (CPB2.8ΔCTE): < 5 µM

SMILES: CC(C)CC(=O)N1CC(=O)[C@@H]2[C@H]1CCN2C(=O)[C@H](CC(C)C)NC(=O)c1ccc(N(C)C)cc1 [Example 130, (3aR,6aS)-4-Dimethylamino-N-{(1S)-3-methyl-1-[4-(3-methyl-butyryl)-6-oxo-hexahydro-pyrrolo[3,2-b]pyrrole-1-carbonyl]-butyl}-benzamide]
- Ki (Wild-type cruzipain): < 5 µM
- Ki (CPB2.8ΔCTE): < 5 µM

SMILES: CC(C)C[C@H](NC(=O)c1ccc(N(C)C)cc1)C(=O)N1CC[C@@H]2[C@H]1C(=O)CN2C(=O)[C@@H](O)CC(C)C [Example 233, (3aR,6aS)-4-Dimethylamino-N-{(1S)-1-[4-((2S)2-hydroxy-4 methyl-pentanoyl)-6-oxo-hexahydro-pyrrolo[3,2-b]pyrrole-1-carbonyl]-3-methyl-butyl}-benzamide]
- Ki (Wild-type cruzipain): < 5 µM
- Ki (CPB2.8ΔCTE): < 5 µM
